Measured values reported in US4539149A, “β-Lactam antibacterial agents” (Beecham Group p.l.c., priority 1981, dated 1985).
Converted amounts (≈) assume the structure as drawn. Where a name gives a salt, the structure may show the parent alone.

Test system: P. mirabilis 889
Test: MIC against P. mirabilis 889
Type: cell-based
Details: for MIC: Proteus mirabilis, 889, P. mirabilis 889

SMILES	MIC [µg/mL]	MIC against P. mirabilis 889 [µg/mL]
Cc1nnc(SCC2=C(C(=O)O)N3C(=O)[C@@](NC=O)(NC(=O)Cc4cccs4)[C@H]3SC2)s1 [Example 56, 7α-Formamido-7β-[2-(thien-2-yl)acetamido]-3-[(2-methyl-1,3,4-thiadiazol-5-yl)thiomethyl]ceph-3-em-4-carboxylate acid, sodium salt]	25	
CC1(C)S[C@H]2N(C(=O)[C@@]2(NC=O)NC(=O)C(C(=O)O)c2ccccc2)[C@H]1C(=O)O (stereo partly drawn) [Example 2, 6α-Formamido-6β-(2-carboxy-2-phenylacetamido)penicillanic acid, di-sodium salt]	50	
CC(=O)OCC1=C(C(=O)O)N2C(=O)[C@@](NC=O)(NC(=O)/C(=N\OC(C)(C)C(=O)O)c3csc(N)n3)[C@H]2SC1 [Example 67, 7β-[(Z)-2-(2-Aminothiazol-4-yl)-2-(1-carboxy-1-methylethoxyimino)acetamido]-7α-formamidocephalosporanic acid disodium salt]	30	
CC1(C)S[C@H]2N(C(=O)[C@@]2(NC=O)NC(=O)[C@H](NC(=O)[C@@H](Cc2ccccc2)NC(N)=O)c2ccc(O)cc2)[C@H]1C(=O)O [Example 21, 6β-[D-2-(D-2-Carbamoylamino-3-phenylpropionamido)-2-(4-hydroxyphenyl)acetamido]-6α-formamidopenicillanic acid, sodium salt]	2.5	
CC1(C)S[C@H]2N(C(=O)[C@@]2(NC=O)NC(=O)[C@H](NC(=O)N2CCNC2=O)c2ccccc2)[C@H]1C(=O)O [Example 11, 6α-Formamido-6β-[D-2-(2-oxoimidazolidin-1-ylcarbonylamino)-2-phenylacetamido]penicillanic acid sodium salt]	1	
CC1(C)S[C@H]2N(C(=O)[C@@]2(NC=O)NC(=O)[C@H](NC(=O)N2CCN(N=Cc3ccco3)C2=O)c2ccc(O)cc2)[C@H]1C(=O)O [Example 20, 6α-Formamido-6β-[D-2-[[3-(furan-2-ylmethyleneamino)-2-oxoimidazolidin-1-yl]carbonylamino]-2-(4-hydroxyphenyl)acetamido]penicillanic acid, sodium salt]	0.25	
CCN1CCN(C(=O)NC(C(=O)NC2(NC=O)C(=O)N3C(C(=O)[O-])C(C)(C)SC32)c2ccc(O)c(O)c2)C(=O)C1=O.[Na+] (stereo not drawn) [Example 33, 6β-[2-[(4-Ethyl-2,3-dioxopiperazin-1-yl)carbonylamino]-2-(3,4-dihydroxyphenyl)acetamido]6α-formamidopenicillanic acid, sodium salt]		0.2
CCN1CCN(C(=O)N[C@@H](C(=O)N[C@]2(NC=O)C(=O)N3C(C(=O)O)=C(COC(C)=O)CS[C@@H]32)c2ccc(O)cc2)C(=O)C1=O [Example 39, 7β-[D-2-[(4-Ethyl-2,3-dioxopiperazin-1-yl)carbonylamino]-2-(4-hydroxyphenyl)acetamido]-7α-formamidocephalosporanic acid, sodium salt]	0.2	
CC(=O)OCC1=C(C(=O)O)N2C(=O)[C@@](NC=O)(NC(=O)[C@H](N)c3ccccc3)[C@H]2SC1 [Example 35, 7β-(D-2-Amino-2-phenylacetamido)-7α-formamidocephalosporanic acid, trifluoroacetic acid salt]	> 100	
CC1(C)S[C@H]2N(C(=O)[C@@]2(NC=O)NC(=O)[C@H](NC(=O)Nc2cnc(Nc3ccc(S(N)(=O)=O)cc3)nc2O)c2ccc(O)cc2)[C@H]1C(=O)O [Example 19, 6β-[D-2-[3-[2-(4-Aminosulphonylphenyl)amino-4-hydroxypyrimidin-5-yl]ureido]-2-(4-hydroxyphenyl)acetamido]-6α-formamidopenicillanic acid, disodium salt]	0.5	
CCN1CCN(C(=O)N[C@@H](C(=O)N[C@]2(NC=O)C(=O)N3C(C(=O)O)=C(COC(C)=O)CS[C@@H]32)c2ccc(O)c(O)c2)C(=O)C1=O [Example 69, 7β-[D-2-[(4-Ethyl-2,3-dioxopiperazin-1-yl)carbonylamino]-2-(3,4-dihydroxyphenyl)acetamido]-7α-formamidocephalosporanic acid, sodium salt]	0.1	
CC1(C)S[C@H]2N(C(=O)[C@@]2(NC=O)NC(=O)[C@H](N)c2ccccc2)[C@H]1C(=O)O [Example 8, 6α-Formamido-6β-(D-2-amino-2-phenylacetamido)penicillanic acid]	25 (≈ 63.7 µM)	
CC1(C)S[C@H]2N(C(=O)[C@@]2(NC=O)NC(=O)[C@H](NC(=O)Nc2cnc(Nc3ccccc3)nc2O)c2ccc(O)cc2)[C@H]1C(=O)O [Example 32, 6α-Formamido-6β-[D-2-(4-hydroxyphenyl)-2-[3-[4-hydroxy-2-(phenylamino)pyrimidin-5-yl]ureido]acetamido]penicillanic acid, sodium salt]	5	
CC1(C)S[C@H]2N(C(=O)[C@@]2(NC=O)NC(=O)C(NC(=O)c2cc3ccccc3oc2=O)c2ccc(O)cc2)[C@H]1C(=O)O (stereo partly drawn) [Example 22, 6β-[2-[(Coumarin-3-yl)carbonylamino]-2-(4-hydroxyphenyl)acetamido]-6α-formamidopenicillanic acid, sodium salt]	10	
O=CN[C@@]1(NC(=O)Cc2cccs2)C(=O)N2C(C(=O)[O-])=C(C[n+]3ccccc3)CS[C@@H]21 [Example 60, 7α-Formamido-3-(pyridiniummethyl)-7β-(thien-2-ylacetamido)-ceph-3-em-4-carboxylate]	50 (≈ 109 µM)	
CC(=O)OCC1=C(C(=O)O)N2C(=O)[C@@](NC=O)(NC(=O)C(C(=O)O)c3ccsc3)[C@H]2SC1 (stereo partly drawn) [Example 43, 7β-[2-Carboxy-2-(thien-3-yl)acetamido]-7α-formamido cephalosporanic acid, disodium salt]	100	
CCN1CCN(C(=O)N[C@H](C(=O)N[C@]2(NC=O)C(=O)N3C(C(=O)O)=C(COC(C)=O)CS[C@@H]32)c2ccc(O)cc2)C(=O)C1=O [Example 40, 7β-[L-2-[(4-Ethyl-2,3-dioxopiperazin-1-yl)carbonylamino]-2-(4-hydroxyphenyl)acetamido]-7α-formamidocephalosporanic acid, sodium salt]	100	
CC1(C)S[C@H]2N(C(=O)[C@@]2(NC=O)NC(=O)[C@H](NC(=O)Nc2coc3ccccc3c2=O)c2ccc(O)cc2)[C@H]1C(=O)O [Example 48, 6β-[D-2-[3-(4-Oxo-4H-1-benzopyran-3-yl)ureido]-2-(4-hydroxyphenyl)acetamido]-6α-formamidopenicillanic acid, sodium salt]	50	
CCN1CCN(C(=O)N[C@H](C(=O)N[C@]2(NC=O)C(=O)N3[C@@H](C(=O)O)C(C)(C)S[C@@H]32)c2ccc(O)cc2)C(=O)C1=O [Example 6, 6α-Formamido-6β-[L-2-[(4-ethyl-2,3-dioxopiperazin-1-yl)carbonylamino]-2-(4-hydroxyphenyl)acetamido]penicillanic acid, sodium salt]	125	
CCN1CCN(C(=O)N[C@@H](C(=O)N[C@]2(NC=O)C(=O)N3[C@@H](C(=O)O)C(C)(C)S[C@@H]32)[C@H](C)OCc2ccccc2)C(=O)C1=O [Example 30, 6β-[(2R,3S)-3-Benzyloxy-2-[(4-ethyl-2,3-dioxopiperazin-1-yl)carbonylamino]butyramido]-6α-formamidopenicillanic acid, sodium salt]	100	
CN(C(=O)C=Cc1ccccc1)C(=O)N[C@@H](C(=O)N[C@]1(NC=O)C(=O)N2[C@@H](C(=O)O)C(C)(C)S[C@@H]21)c1ccc(O)cc1 [Example 17, 6α-Formamido-6β-[D-2-(3-cinnamoyl-3-methylureido)-2-(4-hydroxyphenyl)acetamido]penicillanic acid, sodium salt]	2.5	
CC(=O)OCC1=C(C(=O)O)N2C(=O)[C@@](NC=O)(NC(=O)C(NC(N)=O)c3cccs3)[C@H]2SC1 (single isomer, unassigned) [Example 52 (Isomer 1), 7β-[2-[(Aminocarbonyl)amino]-2-(thien-2-yl)acetamido]-7α-formamidocephalosporanic acid, sodium salt (Isomer 1)]		125
CCN1CCN(C(=O)N[C@@H](C(=O)N[C@]2(NC=O)C(=O)N3[C@@H](C(=O)O)C(C)(C)S[C@@H]32)c2ccc(OC(C)=O)c(OC(C)=O)c2)C(=O)C1=O [Example 18, 6β-[D-2-[(4-Ethyl-2,3-dioxopiperazin-1-yl)carbonylamino]-2-(3,4-diacetoxyphenyl)acetamido]-6α-formamidopenicillanic acid, sodium salt]	0.5	
CCN1CCN(C(=O)N[C@@H](C(=O)N[C@]2(NC=O)C(=O)N3[C@@H](C(=O)O)C(C)(C)S[C@@H]32)c2cccs2)C(=O)C1=O [Example 26, 6β-[D-2-(4-Ethyl-2,3-dioxopiperazin-1-yl)carbonylamino]-2-(thien-2-yl)acetamido]-6α-formamidopenicillanic acid, sodium salt]	0.1	
CC(=O)OCC1=C(C(=O)O)N2C(=O)[C@@](NC=O)(NC(=O)C(NC(N)=O)c3cccs3)[C@H]2SC1 (single isomer, unassigned) [Example 52 (Isomer 2), 7β-[2-[(Aminocarbonyl)amino]-2-(thien-2-yl)acetamido]-7α-formamidocephalosporanic acid, sodium salt (Isomer 2)]		25
CCN1CCN(C(=O)N[C@H](C(=O)N[C@]2(NC=O)C(=O)N3C(C(=O)O)=C(COC(C)=O)CS[C@@H]32)c2cccs2)C(=O)C1=O [Example 45, 7β-[L-2-[(4-Ethyl-2,3-dioxopiperazin-1-yl)carbonylamino]-2-(thien-2-yl)acetamido]-7α-formamidocephalosporanic acid, sodium salt]	0.25	
CC1(C)S[C@H]2N(C(=O)[C@@]2(NC=O)NC(=O)[C@H](N)c2ccc(O)cc2)[C@H]1C(=O)O [Example 9, 6α-Formamido-6β-[D-2-amino-2-(4-hydroxyphenyl)acetamido]penicillanic acid]	50 (≈ 122 µM)	
CC1(C)S[C@H]2N(C(=O)[C@@]2(NC=O)NC(=O)C(C(=O)O)c2ccsc2)[C@H]1C(=O)O (stereo partly drawn) [Example 3, 6α-Formamido-6β-[2-carboxy-2-(3-thienyl)acetamido]penicillanic acid, di-sodium salt]	25	
